Source: publication PMC8410034, “A variant of ASIC2 mediates sodium retention in nephrotic syndrome” (JCI Insight, 2021)

What was measured:
ASIC2a = molecular target: T1, ASIC2a (Rattus norvegicus, UniProt Q62962); assay: two-electrode voltage clamp, X. laevis oocytes; type: cell-based; conditions: acid-induced (pH 4) plateau current, -70 mV
T1 construct: gene Asic2; full-length, expressed alone in X. laevis oocytes (3 ng cRNA, pGH19); homotrimer
T1 sequence (Q62962 1-512): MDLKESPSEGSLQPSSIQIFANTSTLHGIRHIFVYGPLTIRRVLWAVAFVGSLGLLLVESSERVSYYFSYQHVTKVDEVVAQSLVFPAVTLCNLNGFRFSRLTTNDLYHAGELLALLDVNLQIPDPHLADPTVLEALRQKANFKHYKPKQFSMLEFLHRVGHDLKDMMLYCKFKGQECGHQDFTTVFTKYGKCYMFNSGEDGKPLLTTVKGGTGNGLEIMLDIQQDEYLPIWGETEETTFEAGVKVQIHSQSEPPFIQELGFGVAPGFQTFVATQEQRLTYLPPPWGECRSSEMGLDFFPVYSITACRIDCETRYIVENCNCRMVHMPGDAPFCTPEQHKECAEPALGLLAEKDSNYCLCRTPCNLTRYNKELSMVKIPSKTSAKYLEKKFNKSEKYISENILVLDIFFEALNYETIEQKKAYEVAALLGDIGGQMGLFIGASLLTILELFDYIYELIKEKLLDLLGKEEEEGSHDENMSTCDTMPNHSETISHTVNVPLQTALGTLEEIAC

ASIC2a/t-ASIC2b = molecular target: T2, ASIC2a/t-ASIC2b (Rattus norvegicus, UniProt A0A0G3F2N6+Q62962); assay: two-electrode voltage clamp, X. laevis oocytes; type: cell-based
T2 construct: gene Asic2; X. laevis oocytes injected with 3 ng Asic2a + 6 ng Asic2b-type cRNA; t-ASIC2b lacks first 71 N-terminal residues; heterotrimer, stoichiometry unknown (mix with 0, 1 or 2 t-ASIC2b)
T2 sequence (A0A0G3F2N6 1-492): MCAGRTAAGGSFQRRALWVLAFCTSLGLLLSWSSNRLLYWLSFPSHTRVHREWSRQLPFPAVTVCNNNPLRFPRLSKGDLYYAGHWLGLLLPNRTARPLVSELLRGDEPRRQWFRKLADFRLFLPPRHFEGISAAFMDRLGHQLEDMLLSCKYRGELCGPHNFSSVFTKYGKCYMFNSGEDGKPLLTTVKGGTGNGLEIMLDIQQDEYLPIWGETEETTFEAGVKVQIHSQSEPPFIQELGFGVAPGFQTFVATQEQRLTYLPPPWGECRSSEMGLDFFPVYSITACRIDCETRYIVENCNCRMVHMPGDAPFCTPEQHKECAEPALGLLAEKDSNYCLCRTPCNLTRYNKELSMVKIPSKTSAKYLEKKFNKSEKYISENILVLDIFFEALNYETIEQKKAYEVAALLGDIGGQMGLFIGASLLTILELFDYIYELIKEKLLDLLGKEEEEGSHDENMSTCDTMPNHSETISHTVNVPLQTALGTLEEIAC
T2 sequence (Q62962 1-563 isoform Q62962-2): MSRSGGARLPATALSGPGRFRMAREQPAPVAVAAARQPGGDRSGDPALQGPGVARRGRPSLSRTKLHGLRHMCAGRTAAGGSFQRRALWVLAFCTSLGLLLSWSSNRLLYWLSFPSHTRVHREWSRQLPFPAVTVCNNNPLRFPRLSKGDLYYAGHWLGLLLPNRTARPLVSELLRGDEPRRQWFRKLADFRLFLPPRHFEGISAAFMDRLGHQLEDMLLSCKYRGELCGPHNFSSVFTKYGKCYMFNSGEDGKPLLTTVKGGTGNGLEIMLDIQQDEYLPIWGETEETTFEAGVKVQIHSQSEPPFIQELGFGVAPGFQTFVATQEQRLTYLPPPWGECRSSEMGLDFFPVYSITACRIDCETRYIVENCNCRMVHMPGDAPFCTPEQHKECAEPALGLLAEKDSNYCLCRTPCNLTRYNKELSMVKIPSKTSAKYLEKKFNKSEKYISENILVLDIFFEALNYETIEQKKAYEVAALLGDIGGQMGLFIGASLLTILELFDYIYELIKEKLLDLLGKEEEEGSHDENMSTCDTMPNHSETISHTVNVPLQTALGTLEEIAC

- IC50 (ASIC2a/t-ASIC2b): ~50 µM
SMILES: N=C(N)NC(=O)c1nc(Cl)c(N)nc1N [amiloride]
- % inhibition at 100 μM (ASIC2a): did not alter significantly the apparent low sensitivity of ASIC2a to amiloride
